# Source: US12011517B2, “Air freshening product” (The Procter & Gamble Company, priority 2019, dated 2024)
row,Compound,Average Vapor Pressure (Torr) at 25 degrees Celsius [Torr]
1,CCCCCCC/C=C/C=O [(E)-2-Decen-1-al],0.0674
2,CCC/C=C/C=O [(E)-2-Hexen-1-al],10.7
